Drawing on patent US6639023B1, “Fluorophenyl resin compounds” (Aventis Pharmaceuticals Inc., priority 1998, dated 2003), this text covers IC50 for 1 compound.

A value given as a limit tells only on which side of the number the result lay.

By IC50 is commonly meant the concentration needed to halve the response being measured. A lower IC50 goes with inhibition by little substance.

For this assay, the target named is Factor Xa (Homo sapiens, UniProt P00742). The assay is described as follows: IC50 against Factor Xa. It is filed as biochemical.
Factor Xa, sequence (P00742 235-488 limits assumed): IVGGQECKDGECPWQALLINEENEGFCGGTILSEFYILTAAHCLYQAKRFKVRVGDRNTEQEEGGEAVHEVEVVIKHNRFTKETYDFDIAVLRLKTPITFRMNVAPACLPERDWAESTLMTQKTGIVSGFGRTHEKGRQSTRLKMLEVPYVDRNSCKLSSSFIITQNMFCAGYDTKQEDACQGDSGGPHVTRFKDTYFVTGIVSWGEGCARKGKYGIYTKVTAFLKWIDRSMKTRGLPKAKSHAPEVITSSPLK
Factor Xa, sequence (P00742 41-179 partner limits assumed): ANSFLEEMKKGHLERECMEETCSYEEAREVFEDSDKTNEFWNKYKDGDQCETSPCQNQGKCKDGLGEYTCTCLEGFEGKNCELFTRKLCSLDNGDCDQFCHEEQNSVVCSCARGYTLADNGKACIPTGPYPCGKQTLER

In the case of `O=C1[C@@H](NS(=O)(=O)c2cc3ccc(Cl)cc3s2)CCN1Cc1cc2ncccc2[nH]1` [Example 24], the IC50 was < 500 nM.
